Key:
[1] = molecular target: adenosine A2A receptors (Mus musculus, UniProt Q60613); assay: Radiotracer affinity (Kd, Bmax); format: binding; conditions: n=5
[2] = Stability of radiotracer in solutions and porcine plasma; format: in vitro ADME; conditions: 37° C., one hour
Experimental: [^18F]FLUDA has shown to be stable in a sodium chloride, PBS, n-octanol solution and in porcine plasma at 37° C. for one hour (PBS=phosphate buffered salt solution). Using the conventional “Shake-flask” method a log D74=2.01±0.07 (n=3) has been established.

[3] = In-vivo metabolite study in female CD-1 mice (radio-HPLC); conditions: for intact radiotracer in the brain / intact radiotracer in the plasma: radio-HPLC
Experimental: In the in-vivo metabolite study in female CD-1 mice after 15 min p.i. in the brain 93% (radio-HPLC, n=3, extraction yield 98%) and in the plasma 79% (radio-HPLC, n=3, extraction yield 83%) of intact radiotracers have been detected.

[4] = system: striatum (brain slices); assay: In-vitro autoradiography in mouse brain slices; format: binding; conditions: brain slices of mice
[5] = PET study in healthy CD-1 mice; format: in vivo; conditions: striatum, 15 min p.i., n=3
[6] = molecular target: hA2A (Homo sapiens, UniProt P29274); assay: Affinity for human adenosine A2A receptor (Ki); format: binding
Chain of hA2A (P29274 whole entry): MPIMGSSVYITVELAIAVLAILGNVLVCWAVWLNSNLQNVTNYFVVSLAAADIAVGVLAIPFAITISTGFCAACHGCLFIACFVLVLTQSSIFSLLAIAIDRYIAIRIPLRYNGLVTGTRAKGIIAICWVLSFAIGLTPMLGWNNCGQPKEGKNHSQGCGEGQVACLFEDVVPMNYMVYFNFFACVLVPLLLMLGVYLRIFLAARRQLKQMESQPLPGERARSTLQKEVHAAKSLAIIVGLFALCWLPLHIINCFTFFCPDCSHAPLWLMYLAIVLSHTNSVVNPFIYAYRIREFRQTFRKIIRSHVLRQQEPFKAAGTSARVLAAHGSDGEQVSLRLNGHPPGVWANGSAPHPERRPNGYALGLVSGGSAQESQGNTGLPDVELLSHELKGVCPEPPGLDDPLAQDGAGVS

[7] = molecular target: hA1 (Homo sapiens, UniProt P30542); assay: biochemical
Chain of hA1 (P30542 whole entry): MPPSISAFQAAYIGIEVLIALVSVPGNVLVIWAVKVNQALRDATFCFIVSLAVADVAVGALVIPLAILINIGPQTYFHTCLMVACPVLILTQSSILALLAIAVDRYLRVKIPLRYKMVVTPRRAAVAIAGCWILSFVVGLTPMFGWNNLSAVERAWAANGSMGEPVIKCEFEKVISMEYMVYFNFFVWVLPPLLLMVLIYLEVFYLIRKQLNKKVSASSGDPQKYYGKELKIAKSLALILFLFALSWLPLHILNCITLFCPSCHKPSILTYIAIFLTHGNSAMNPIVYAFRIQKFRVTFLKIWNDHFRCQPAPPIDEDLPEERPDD

[8] = female CD-1 mice, 15 min p.i., n=3
[9] = repeated study (Example 6A / Comparison example 1A)
[10] = further tests, taking into account the above data, n=3

Chain of adenosine A2A receptors (Q60613 whole entry): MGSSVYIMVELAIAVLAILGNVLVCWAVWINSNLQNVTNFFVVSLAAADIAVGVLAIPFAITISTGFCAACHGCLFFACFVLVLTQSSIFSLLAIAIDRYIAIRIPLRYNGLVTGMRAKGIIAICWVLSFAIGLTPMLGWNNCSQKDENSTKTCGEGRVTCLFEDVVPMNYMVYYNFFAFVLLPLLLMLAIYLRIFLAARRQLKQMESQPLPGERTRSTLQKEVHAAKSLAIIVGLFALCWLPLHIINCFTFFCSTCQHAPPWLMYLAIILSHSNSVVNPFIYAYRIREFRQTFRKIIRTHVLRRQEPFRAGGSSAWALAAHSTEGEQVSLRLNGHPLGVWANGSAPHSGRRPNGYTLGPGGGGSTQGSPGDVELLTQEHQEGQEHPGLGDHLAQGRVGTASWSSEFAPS

Row | SMILES | Bmax [1] [fmol/mg] | stability in PBS [2] | stability in n-octanol solution [2] | stability in porcine plasma [2] | stability in sodium chloride solution [2] | intact radiotracer in the brain [3, 8] [%] | intact radiotracer in the plasma [3, 8] [%] | metabolic stability compared to 18F-labeled compound D ([3]; mouse, in vivo) | intact radiotracer in the brain [3, 9] [%] | intact radiotracer in the plasma [3, 9] [%] | change of the radiotracer by A2A-selective ligands [4] | enrichment of the radiotracer in the target region (striatum) [4] | cerebral uptake SUV [5] | Ki ([6]; first determination) [µM] | Ki [6, 10] [µM] | Ki ([7]; first determination) [µM] | Ki [7, 10] [µM] | Ki ([7]; n=4) [µM]
1 | [2H]C([2H])([18F])C([2H])([2H])Oc1ccc(CCCn2ncc3c2nc(N)n2nc(-c4ccco4)nc32)cc1 [[^18F]FLUDA, 7-(3-(4-(2-([^18F]fluoro)ethoxy-1,1,2,2-d4)phenyl)propyl)-2-(furan-2-yl)-7H-pyrazolo[4,3-e][1,2,4]triazolo[1,5-c]pyrimidine-5-amine] | 556 ± 143 | stable | stable | stable | stable | 93 | 79 | significantly higher | 100 | 82 | change of the radiotracer by means of A2A-selective ligands | selective enrichment | 0.8 | – | – | – | – | –
2 | [2H]C([2H])(F)C([2H])([2H])Oc1ccc(CCCn2ncc3c2nc(N)n2nc(-c4ccco4)nc32)cc1 (single isomer, unassigned) [FLUDA, 7-(3-(4-(2-(fluoro)ethoxy-1,1,2,2-d4)phenyl)propyl)-2-(furan-2-yl)-7H-pyrazolo[4,3-e][1,2,4]triazolo[1,5-c]pyrimidine-5-amine] | – | – | – | – | – | – | – | – | – | – | – | – | – | 0.000609 | 0.00074 ± 0.00026 | 0.767 | > 1 | –
3 | Nc1nc2c(cnn2CCCc2ccc(OCC[18F])cc2)c2nc(-c3ccco3)nn12 (single isomer, unassigned) [[^18F]D, 7-(3-(4-(2-([^18F]fluoro)ethoxy)phenyl)propyl)-2-(furan-2-yl)-7H-pyrazolo[4,3-e][1,2,4]triazolo[1,5-c]pyrimidine-5-amine, reference compound] | – | – | – | – | – | 68 | 70 | – | 71 | 41 | – | – | – | – | – | – | – | 0.203

Source: patent publication US12454536B2, “Deuterated 7-(3-(4-(2-([18F]fluoro)ethoxy)phenyl)propyl)-2-(furan-2-yl)-7H- pyrazolo [4,3-e][1,2,4]triazolo[1,5-C]pyrimidine-5-amine derivatives” (HELMHOLTZ-ZENTRUM DRESDEN-ROSSENDORF E.V., priority 2019, dated 2025)
